Assay results taken from US20220298222A1, “COMBINATION THERAPY OF A T CELL THERAPY AND AN ENHANCER OF ZESTE HOMOLOG 2 (EZH2) INHIBITOR AND RELATED METHODS” (Juno Therapeutics, Inc., priority 2019, published 2022).

Assays:
[1] = test system: GCB cell lines (WSU-DLCL2, Farage, KARPAS-422, and SU-DHL-5); assay: Cell viability by ATP luminescence-based assay, GCB cell lines; details: 6 days; 1.0 μM EPZ-6438, 0.1 μM or 1.0 μM CPI-1205; mutant and wild type GCB cell lines
Description: (§1) Cell viability was determined based on the amount of ATP quantified by a luminescence-based assay.

[2] = test system: ABC cell lines (SU-DHL-2 and OCI-LY3); assay: Cell viability by ATP luminescence-based assay, ABC cell lines; details: 6 days, 1.0 μM EPZ-6438, 0.1 μM or 1.0 μM CPI-1205, wild type EZH2
Description: as §1

[3] = test system: H3K27Me3 in GCB (WSU-DLCL2, Farage, KARPAS-422, SU-DHL-5) and ABC (SU-DHL-2, OCI-LY3) DLBCL cell lines; assay: H3K27Me3 levels by Western blot in GCB and ABC DLBCL cell lines, two EZH2 inhibitors; format: cell-based; details: 6 days; 0.1 or 1.0 μM; all GCB and ABC cell lines tested
[4] = cited from earlier work

Structure (SMILES) | cell viability (ATP) [1] | cell viability (ATP) [2] | H3K27Me3 levels (Western blot) [3] | recommended phase II dose ([4]; twice daily (BID) or three times daily (TID) for 28-day cycles, subjects with R/R B-cell non-Hodgkin lymphoma or an advanced solid tumor) | maximum tolerated dose (MTD) ([4]; twice daily, human subjects, R/R B-cell lymphoma, 28-day cycles)
COc1cc(C)[nH]c(=O)c1CNC(=O)c1c(C)n([C@H](C)C2CCN(CC(F)(F)F)CC2)c2ccccc12 [CPI-1205] | decreased cell viability | resistant | decreased H2K27Me3 levels | – | –
CCN(c1cc(-c2ccc(CN3CCOCC3)cc2)cc(C(=O)NCc2c(C)cc(C)[nH]c2=O)c1C)C1CCOCC1 [tazemetostat] | – | – | – | 800 mg | 800 milligrams
